Experimental data reported in ChEMBL document CHEMBL4359837, “Discovery of 2-(4-Chloro-3-(trifluoromethyl)phenyl)-N-(4-((6,7-dimethoxyquinolin-4-yl)oxy)phenyl)acetamide (CHMFL-KIT-64) as a Novel Orally Available Potent Inhibitor against Broad-Spectrum Mutants of c-KIT Kinase for Gastrointestinal Stromal Tumors” (J Med Chem, 2019).
Activity calls are given as the source filed them. The rule behind the calls is not given here.

Columns and labels:
[1] = Growth inhibition of mouse BAF3 cells measured after 72 hrs by CCK8 assay; format: cell-based
[2] = biological target: Mast/stem cell growth factor receptor Kit (Mus musculus) (UniProt P05532); test: Inhibition of c-KIT in mouse BAF3(transformed) cells assessed as growth inhibition after 72 hrs by CCK8 assay
[3] = organism: Mus musculus; test: Inhibition of c-KIT V654A/V559D double mutant in mouse BAF3(transformed) cells assessed as growth inhibition after 72 hrs by CCK8 assay
[4] = organism: Mus musculus; test: Inhibition of c-KIT T670E mutant in mouse BAF3(transformed) cells assessed as growth inhibition after 72 hrs by CCK8 assay
[5] = organism: Mus musculus; test: Inhibition of c-KIT T670I/V559D double mutant in mouse BAF3(transformed) cells assessed as growth inhibition after 72 hrs by CCK8 assay
[6] = organism: Mus musculus; test: Inhibition of c-KIT S709F mutant in mouse BAF3(transformed) cells assessed as growth inhibition after 72 hrs by CCK8 assay
[7] = organism: Mus musculus; test: Inhibition of c-KIT D816E mutant in mouse BAF3(transformed) cells assessed as growth inhibition after 72 hrs by CCK8 assay
[8] = organism: Mus musculus; test: Inhibition of c-KIT D820G mutant in mouse BAF3(transformed) cells assessed as growth inhibition after 72 hrs by CCK8 assay
[9] = Growth inhibition of human GIST48B cells after 72 hrs by CCK8 assay; format: functional
[10] = Antitumor activity against mouse BAF3(transformed) cells harboring c-KIT T670I mutant implanted in BALB/c nu mouse assessed as tumor growth inhibition at 40 mg/kg/day, po administered via gavage for 11 days relative to control; format: functional; conditions: 264 h, read-out: TGI
[11] = test system: GISTT1; format: functional, Homo sapiens; conditions: for inhibition in vivo at 20 mg/kg/day: Mus musculus, GISTT1, po, 672 h, read-out: TGI
[12] = test system: Mast/stem cell growth factor receptor Kit (Homo sapiens), P10721 [V559D]; conditions: Mus musculus
Sequence of Mast/stem cell growth factor receptor Kit (Homo sapiens), P10721 [V559D] (P10721 whole entry V559D): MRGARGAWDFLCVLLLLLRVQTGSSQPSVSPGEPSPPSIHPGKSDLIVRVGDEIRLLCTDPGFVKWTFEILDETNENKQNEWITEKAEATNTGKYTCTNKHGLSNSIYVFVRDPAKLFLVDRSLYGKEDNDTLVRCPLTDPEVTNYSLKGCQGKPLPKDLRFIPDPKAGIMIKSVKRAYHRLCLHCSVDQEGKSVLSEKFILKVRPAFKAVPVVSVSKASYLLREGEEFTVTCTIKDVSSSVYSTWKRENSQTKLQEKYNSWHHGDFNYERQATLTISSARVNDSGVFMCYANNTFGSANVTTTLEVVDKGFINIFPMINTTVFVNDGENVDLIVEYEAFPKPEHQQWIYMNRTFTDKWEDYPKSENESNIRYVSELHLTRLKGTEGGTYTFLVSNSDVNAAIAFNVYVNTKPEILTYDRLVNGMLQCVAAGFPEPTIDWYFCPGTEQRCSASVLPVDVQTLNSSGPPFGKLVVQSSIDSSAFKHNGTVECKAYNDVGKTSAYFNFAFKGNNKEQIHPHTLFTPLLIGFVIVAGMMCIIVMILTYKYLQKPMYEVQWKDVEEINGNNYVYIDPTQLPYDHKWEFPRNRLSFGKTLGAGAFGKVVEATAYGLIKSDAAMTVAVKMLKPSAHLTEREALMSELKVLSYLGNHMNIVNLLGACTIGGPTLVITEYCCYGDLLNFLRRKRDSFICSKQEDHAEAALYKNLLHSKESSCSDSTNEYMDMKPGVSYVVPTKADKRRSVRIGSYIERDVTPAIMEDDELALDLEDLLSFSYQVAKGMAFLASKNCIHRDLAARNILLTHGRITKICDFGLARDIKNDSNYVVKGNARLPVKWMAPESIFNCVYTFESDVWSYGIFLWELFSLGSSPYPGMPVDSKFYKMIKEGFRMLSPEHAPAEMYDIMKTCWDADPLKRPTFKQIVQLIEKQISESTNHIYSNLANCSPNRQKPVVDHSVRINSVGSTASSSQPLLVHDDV
Description: Inhibition of c-KIT V559D mutant in mouse BAF3(transformed) cells assessed as growth inhibition after 72 hrs by CCK8 assay

[13] = test system: Mast/stem cell growth factor receptor Kit (Homo sapiens), P10721 [D816H]; conditions: Mus musculus
Description: Inhibition of c-KIT D816H mutant in mouse BAF3(transformed) cells assessed as growth inhibition after 72 hrs by CCK8 assay

[14] = test system: Mast/stem cell growth factor receptor Kit (Homo sapiens), P10721 [D816V]; conditions: Mus musculus
Sequence of Mast/stem cell growth factor receptor Kit (Homo sapiens), P10721 [D816V] (P10721 whole entry D816V): as the sequence (P10721 whole entry V559D) above, with D559V, D816V counted along it
Description: Inhibition of c-KIT D816V mutant in mouse BAF3(transformed) cells assessed as growth inhibition after 72 hrs by CCK8 assay

[15] = test system: Mast/stem cell growth factor receptor Kit (Homo sapiens), P10721 [D820E]; conditions: Mus musculus
Sequence of Mast/stem cell growth factor receptor Kit (Homo sapiens), P10721 [D820E] (P10721 whole entry D820E): as the sequence (P10721 whole entry V559D) above, with D559V, D820E counted along it
Description: Inhibition of c-KIT D820E mutant in mouse BAF3(transformed) cells assessed as growth inhibition after 72 hrs by CCK8 assay

[16] = test system: Mast/stem cell growth factor receptor Kit (Homo sapiens), P10721 [D820Y]; conditions: Mus musculus
Description: Inhibition of c-KIT D820Y mutant in mouse BAF3(transformed) cells assessed as growth inhibition after 72 hrs by CCK8 assay

[17] = test system: Mast/stem cell growth factor receptor Kit (Homo sapiens), P10721 [A829P]; conditions: Mus musculus
Description: Inhibition of c-KIT A829P mutant in mouse BAF3(transformed) cells assessed as growth inhibition after 72 hrs by CCK8 assay

[18] = test system: Mast/stem cell growth factor receptor Kit (Homo sapiens), P10721 [UNDEFINED MUTATION]; conditions: GISTT1, 0.1 uM
Sequence of Mast/stem cell growth factor receptor Kit (Homo sapiens), P10721 [UNDEFINED MUTATION] (P10721 whole entry, looked up, change not shown, the tested form may be a part): as the sequence (P10721 whole entry V559D) above, with D559V counted along it
Description: Inhibition of c-KIT 560 to 578 deletion mutant in human GISTT1 cells assessed as reduction in STAT3 phosphorylation at Y705 residue at 0.1 uM measured after 2 hrs by Western blot analysis

[19] = biological target: RAC-alpha serine/threonine-protein kinase (Homo sapiens) (UniProt P31749); conditions: GISTT1, 0.1 uM
Description: Inhibition of AKT autophosphorylation at T308 residue in human GISTT1 cells harboring c-KIT 560 to 578 deletion mutant at 0.1 uM measured after 2 hrs by Western blot analysis

[20] = test system: Mast/stem cell growth factor receptor Kit (Homo sapiens), P10721 [UNDEFINED MUTATION]; conditions: GISTT1, 0.1 uM; remark: listed apart in the source
Description: Inhibition of c-KIT 560 to 578 deletion/T670I mutant in human GISTT1 cells assessed as reduction in c-KIT autophosphorylation at Y823 residue at 0.1 uM measured after 2 hrs by Western blot analysis

[21] = test system: Mast/stem cell growth factor receptor Kit (Homo sapiens), P10721 [UNDEFINED MUTATION]; conditions: GISTT1, 0.1 uM; remark: listed apart in the source
Description: Inhibition of c-KIT 560 to 578 deletion mutant in human GISTT1 cells assessed as reduction in AKT phosphorylation at T308 residue at 0.1 uM measured after 2 hrs by Western blot analysis

[22] = test system: Mast/stem cell growth factor receptor Kit (Homo sapiens), P10721 [UNDEFINED MUTATION]; conditions: GISTT1, 0.1 uM; remark: listed apart in the source
Description: Inhibition of c-KIT 560 to 578 deletion mutant in human GISTT1 cells assessed as reduction in AKT phosphorylation at S473 residue at 0.1 uM measured after 2 hrs by Western blot analysis

[23] = test system: Mast/stem cell growth factor receptor Kit (Homo sapiens), P10721 [UNDEFINED MUTATION]; conditions: 0.1 uM
Description: Inhibition of c-KIT 560 to 578 deletion/T670I mutant in human GIST5R assessed as reduction in ERK phosphorylation at T202 residue at 0.1 uM measured after 2 hrs by Western blot analysis

[24] = test system: Mast/stem cell growth factor receptor Kit (Homo sapiens), P10721 [UNDEFINED MUTATION]; conditions: 0.1 uM; remark: listed apart in the source
Description: Inhibition of c-KIT 560 to 578 deletion/T670I mutant in human GIST5R assessed as reduction in ERK phosphorylation at T204 residue at 0.1 uM measured after 2 hrs by Western blot analysis

[25] = biological target: Serine/threonine-protein kinase 10 (Homo sapiens) (UniProt O94804); test: Binding affinity to wild-type human partial length LOK (E16 to V314 residues) expressed in bacterial expression system assessed as residual binding level at 1 uM by Kinomescan method relative to control
[26] = biological target: Platelet-derived growth factor receptor beta (Mus musculus) (UniProt P05622); test: Inhibition of PDGFRB in mouse BAF3(transformed) cells assessed as growth inhibition after 72 hrs by CCK8 assay
[27] = biological target: T1, Mast/stem cell growth factor receptor Kit (Homo sapiens, UniProt P10721, 560-578DEL/T670I); format: cell-based, GISTT1
T1 sequence (P10721 whole entry, looked up, stated change not applied): as the sequence (P10721 whole entry V559D) above, with D559V counted along it

[28] = biological target: T1, Mast/stem cell growth factor receptor Kit; format: cell-based
[29] = biological target: Mast/stem cell growth factor receptor Kit (Homo sapiens, UniProt P10721, 560-578DEL); format: cell-based, GISTT1
[30] = biological target: T1, Mast/stem cell growth factor receptor Kit; format: cell-based, GISTT1; remark: listed apart in the source
[31] = biological target: T1, Mast/stem cell growth factor receptor Kit; format: cell-based, GISTT1; remark: listed apart in the source
[32] = organism: Homo sapiens; format: functional, cell-based
[33] = test system: GISTT1; format: functional, cell-based; conditions: Homo sapiens
[34] = test system: GISTT1; format: functional, cell-based; conditions: Homo sapiens; remark: listed apart in the source
[35] = AUC (0 to t) in Sprague-Dawley rat at 1 mg/kg, iv by LC-MS/MS analysis; format: ADME, organism-based; conditions: in vivo
[36] = Tmax in mouse at 1 mg/kg, iv by LC-MS/MS analysis; format: ADME, organism-based; conditions: in vivo
[37] = AUC (0 to t) in mouse at 10 mg/kg, po by LC-MS/MS analysis; format: ADME, organism-based; conditions: in vivo
[38] = Half life in mouse at 10 mg/kg, po by LC-MS/MS analysis; format: ADME, organism-based; conditions: in vivo
[39] = Oral bioavailability in mouse at 10 mg/kg by LC-MS/MS analysis; format: ADME, organism-based; conditions: in vivo
[40] = test system: Mus musculus; format: functional, organism-based; conditions: BALB/c, 80 mg/kg
[41] = Protein binding in plasma (unknown origin); format: ADME, cell-free; conditions: read-out: PPB
[42] = Antitumor activity against mouse BAF3(transformed) cells harboring c-KIT T670I mutant implanted in BALB/c nu mouse assessed as tumor growth inhibition at 100 mg/kg/day, po administered via gavage for 11 days relative to control; format: functional; conditions: 264 h, read-out: TGI
[43] = Antitumor activity against mouse BAF3(transformed) cells harboring c-KIT Y823D mutant implanted in BALB/c nu mouse assessed as tumor growth inhibition at 40 mg/kg/day, po administered via gavage for 9 days relative to control; format: functional; conditions: 216 h, read-out: TGI
[44] = test system: Mus musculus; test: Antitumor activity against mouse BAF3(transformed) cells harboring c-KIT Y823D mutant implanted in BALB/c nu mouse assessed as tumor growth inhibition administered via oral gavage for 9 days; format: functional
[45] = test system: Homo sapiens; format: functional; conditions: 40 mg/kg
[46] = Toxicity in BALB/c nu mouse implanted with mouse BAF3(transformed) cells harboring c-KIT D820G mutant assessed as change in body weight at 40 to 80 mg/kg/day, po administered via gavage for 9 days measured daily during compound dosing; format: organism-based; conditions: in vivo, 216 h

CCN(CC)CCNC(=O)c1c(C)[nH]c(/C=C2\C(=O)Nc3ccc(F)cc32)c1C [SUNITINIB]
GI50 at 72 h [1]: 1010 nM | GI50 [2]: 3 nM | GI50 [3]: 19 nM | GI50 [4]: 89 nM | GI50 [5]: 12 nM | GI50 [6]: 28 nM | GI50 [7]: 59 nM | GI50 [8]: 389 nM | GI50 [9]: 740 nM | inhibition in vivo at 40 mg/kg/day [10]: 96.7% | inhibition in vivo at 20 mg/kg/day [11]: 93.6% | GI50 [12]: 1 nM | GI50 [13]: 315 nM | GI50 [14]: 1720 nM | GI50 [15]: 93 nM | GI50 [16]: 172 nM | GI50 [17]: 18 nM | inhibition [18]: Active | inhibition [19]: Active | inhibition [20]: Active | inhibition [21]: Active | inhibition [22]: Active | inhibition [23]: Active | inhibition [24]: Active

COc1cc2nccc(Oc3ccc(NC(=O)Cc4ccc(Cl)c(C(F)(F)F)c4)cc3)c2cc1OC
GI50 at 72 h [1]: 5970 nM | GI50 [2]: 1 nM | GI50 [3]: 42 nM | GI50 [4]: 71 nM | GI50 [5]: 45 nM | GI50 [6]: 17 nM | GI50 [7]: 16 nM | GI50 [8]: 9 nM | Activity [25]: < 1% | GI50 [26]: 4 nM | GI50 [9]: 1370 nM | EC50 [27]: < 100 nM | EC50 [28]: < 100 nM | EC50 [29]: < 100 nM | EC50 [30]: < 100 nM | EC50 [31]: < 100 nM | Activity [32]: Dose-dependent effect | Activity [33]: Dose-dependent effect | Activity [34]: Dose-dependent effect | AUC(0-t) [35]: 2550 ng·h/mL | Tmax [36]: 1.8 min | AUC(0-t) [37]: 12600 ng·h/mL | half-life [38]: 4.5 h | bioavailability [39]: 43% | inhibition [40]: inactive | fraction unbound [41]: < 0.1 | inhibition in vivo at 40 mg/kg/day [10]: 90.2% | inhibition in vivo at 100 mg/kg/day [42]: 100% | inhibition in vivo at 40 mg/kg/day [43]: 81.8% | TGI [44]: Dose-dependent effect | TGI ([11]; Homo sapiens, 20 mg/kg): Dose-dependent effect | inhibition in vivo at 20 mg/kg/day [11]: 59.4% | TGI [45]: Dose-dependent effect | Activity [46]: Non-Toxic | GI50 [12]: 6 nM | GI50 [13]: 97 nM | GI50 [14]: 1730 nM | GI50 [15]: 1 nM | GI50 [16]: 3 nM | GI50 [17]: 22 nM
